Assay results from US20210069120A1, “COMPOSITE NANOPARTICLE, PREPARATION METHOD THEREOF AND PREPARATION METHOD OF COMPOSITE NANO PREPARATION USING THEREOF” (JINAN UNIVERSITY, priority 2018, published 2021).

What was measured:
[1] = test system: MDA-MB-231 cells; test: Apoptosis of MDA-MB-231 cells detected by flow cytometry (Annexin V-FITC/PI); format: cell-based, human
Description: After Blank PLN, PTX, PSO, I-PSO, PTX+PSO+I-PSO and (PTX+PSO+I-PSO)-PLN were used to act on the MDA-MB-231 cells respectively, a blank control without drug treatment was set at the same time. Cells were collected, an Annexin V-FITC buffer solution and a propidium iodide (PI) staining solution were added respectively, and cell apoptosis was detected by a flow cytometry, wherein green fluorescence was Annexin V-FITC, and red fluorescence was PI. Annexin V-FITC/PI double staining was dominant in late apoptotic cells and dead cells which referred to an upper right region on a flow cytometry diagram, while AnnexinV-FITC staining was dominant in early apoptotic cells which referred to a lower right region on the flow cytometry diagram. The experiment was repeated for three times.

[2] = test system: MDA-MB-231 cells; test: MTT proliferation inhibition / toxicity on MDA-MB-231; format: cell-based, human; conditions: 48 hours, concentration range of 0.39 to 100 μmol/L
Description: 4×10^3 MDA-MB-231 cells/well were inoculated into a 96-well plate with a concentration of 100 μL/well, and cultured in a 5% CO2 cell incubator at 37° C. for 24 hours, then a supernatant was removed after 24 hours, and 200 μL of drug-containing medium was added. The final concentrations of the PTX added to the MDA-MB-231 cells were 0.0039 μmol/L, 0.0078 μmol/L, 0.0156 μmol/L, 0.03125 μmol/L, 0.0625 μmol/L, 0.125 μmol/L, 0.25 μmol/L, 0.5 μmol/L and 1 μmol/L. At the same time, a control group (the same amount of culture fluid was added) and a blank zeroing group were set up. Each well was provided with 6 multiple wells and placed in a CO2 incubator for continuous cultivation for 48 hours. […] An OD value was measured at 570 nm of an enzyme reader. […]
(§1) 4×10^3 MDA-MB-231 cells/well were inoculated into a 96-well plate with a concentration of 100 μL/well, and cultured in a 5% CO2 cell incubator at 37° C. for 24 hours, then a supernatant was removed after 24 hours, and 200 μL of drug-containing medium was added. […] An OD value was measured at 570 nm of an enzyme reader. […]
as §1

SMILES	Apoptosis rate (%) of MDA-MB-231 cells [1]	toxicity to the MDA-MB-231 cells (cell viability) [2]
O=c1ccc2ccc3occc3c2o1 [I-PSO, isopsoralen]	11.5%	
O=c1ccc2cc3ccoc3cc2o1 [PSO, psoralen]	13.8%	no obvious toxicity
CC(=O)O[C@H]1C(=O)[C@@]2(C)[C@H]([C@H](OC(=O)c3ccccc3)[C@]3(O)C[C@H](OC(=O)[C@H](O)[C@@H](NC(=O)c4ccccc4)c4ccccc4)C(C)=C1C3(C)C)[C@]1(OC(C)=O)CO[C@@H]1C[C@@H]2O [PTX, paclitaxel]	15.1%	
